Reference: article PMC4673899 (Analytical biochemistry, 2010)
Like-named read-outs stand apart in the source and are kept apart here. Each block holds one molecule with its values, some of them ahead of it. Primed or numbered codes have the meaning given here. Ends that are not written are not given here. Me3 = trimethyl on the lysine side chain; Me3″ = trimethyl (on lysine)

Assays:
JMJD2E [1] = biological target: T1, JMJD2E (Homo sapiens, UniProt B2RXH2); conditions: read-out: IC50 (FDH), cited from earlier work
T1 sequence (B2RXH2 1-337): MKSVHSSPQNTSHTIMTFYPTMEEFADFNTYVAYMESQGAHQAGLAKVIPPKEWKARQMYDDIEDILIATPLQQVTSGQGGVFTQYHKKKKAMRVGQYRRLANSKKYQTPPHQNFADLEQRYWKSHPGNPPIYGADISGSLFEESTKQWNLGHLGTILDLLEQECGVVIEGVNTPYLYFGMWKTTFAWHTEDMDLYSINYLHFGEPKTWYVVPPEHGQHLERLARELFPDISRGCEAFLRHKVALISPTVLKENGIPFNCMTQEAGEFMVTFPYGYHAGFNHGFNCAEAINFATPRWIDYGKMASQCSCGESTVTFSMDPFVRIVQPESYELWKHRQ

[2] = biological target: histone H3K9me3 peptide (Homo sapiens) (UniProt P68431); assay: SPR; conditions: cited from earlier work
JMJD2E [3] = biological target: T1, JMJD2E; assay: JMJD2E-peptide binding AlphaScreen assay
JMJD2E [4] = biological target: T1, JMJD2E; conditions: cited from earlier work
[5] = biological target: T2, N-terminally His-tagged catalytic domain of recombinant JMJD2E (residues 1-337) (UniProt B2RXH2 1-337); assay: AlphaScreen or HTRF
T2 sequence (looked up): T1 sequence (B2RXH2 1-337)

Chain of JMJD2A (O75164 2-1064): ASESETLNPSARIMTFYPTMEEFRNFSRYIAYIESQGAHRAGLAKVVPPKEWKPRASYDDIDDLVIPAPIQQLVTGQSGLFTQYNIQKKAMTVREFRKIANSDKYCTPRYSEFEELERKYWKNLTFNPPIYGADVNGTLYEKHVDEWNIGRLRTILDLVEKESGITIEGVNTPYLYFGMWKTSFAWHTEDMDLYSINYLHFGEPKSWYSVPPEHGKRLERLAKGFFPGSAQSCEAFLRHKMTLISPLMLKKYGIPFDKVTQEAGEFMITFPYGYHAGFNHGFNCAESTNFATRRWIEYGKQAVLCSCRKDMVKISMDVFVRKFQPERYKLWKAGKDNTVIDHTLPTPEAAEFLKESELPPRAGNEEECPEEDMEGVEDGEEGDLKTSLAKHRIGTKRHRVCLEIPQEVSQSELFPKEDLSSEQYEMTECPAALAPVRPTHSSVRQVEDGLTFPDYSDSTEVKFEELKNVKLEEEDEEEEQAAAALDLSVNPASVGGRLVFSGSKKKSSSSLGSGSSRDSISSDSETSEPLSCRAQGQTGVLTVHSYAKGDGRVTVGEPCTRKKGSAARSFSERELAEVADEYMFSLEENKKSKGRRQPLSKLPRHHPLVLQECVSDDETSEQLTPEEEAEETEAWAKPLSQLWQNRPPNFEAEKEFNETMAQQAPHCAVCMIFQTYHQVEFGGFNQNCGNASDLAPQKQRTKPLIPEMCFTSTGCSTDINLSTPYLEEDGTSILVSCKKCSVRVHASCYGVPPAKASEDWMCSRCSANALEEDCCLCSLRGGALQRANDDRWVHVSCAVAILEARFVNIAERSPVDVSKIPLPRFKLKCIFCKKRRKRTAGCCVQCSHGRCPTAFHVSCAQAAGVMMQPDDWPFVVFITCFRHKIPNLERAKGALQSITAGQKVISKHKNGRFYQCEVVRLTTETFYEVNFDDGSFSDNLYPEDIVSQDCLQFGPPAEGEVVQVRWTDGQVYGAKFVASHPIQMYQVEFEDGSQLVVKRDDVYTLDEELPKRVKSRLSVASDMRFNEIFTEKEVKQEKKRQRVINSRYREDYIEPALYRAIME

Molecule: O=C(O)c1ccc(C(=O)O)nc1 [Compound 4, 3,6-PDCA]
IC50 (JMJD2E [1]; listed as 3,6-PDCA (4)): > 1000 µM

Molecule: O=C(O)c1ccc(C(=O)O)nc1 [Compound 3, 2,5-PDCA]
IC50 (JMJD2E [1]; listed as 2,5-PDCA (3)): 180 µM

Molecule: JMJD2A (from UniProt O75164)
Kd [2]: 1 µM

concentration at signal maximum in binding assay (JMJD2E [3]; JMJD2E pre-incubated with 2OG prior to biotinylated-H3(1-15)K9Me3): 10 to 30 µM
Molecule: O=C(O)CCC(=O)C(=O)O [Compound 2OG, 2-oxoglutarate]
Km (JMJD2E [4]): 14 µM

Molecule: H3(6-21)K9Me3: histone H3 residues 6-21 peptide with tri-methyl lysine 9 (TARK(Me3″)STGGKAPRKQLA-NH2)
relative JMJD2E affinity in the binding assay (JMJD2E [3]; competition of unlabelled peptide with biotin-H3(1-15)K9Me3): higher JMJD2E affinity than H3(1-15)K9Me3

Molecule: O=C(O)c1cccnc1C(=O)O [Compound 2, 2,3-PDCA]
IC50 (JMJD2E [1]): > 5000 µM

binding result [5]: binds
Molecule: TARK(Me3)STGGKAPRKQLA-NH2 (peptide, UniProt P68431 7-22, looked up) [H3(6-21)K9Me3 peptide]

IC50 [5]: 1.2 µM
Molecule: ARTKQTARKSTGGKA (peptide, UniProt P68431 2-16, looked up, trimethyl-lysine at K9; C-terminal amide) [unlabelled H3(1-15)K9Me3 peptide]
